Patent US8487001B2, “Medium-chain length fatty acids, glycerides and analogues as neutrophil survival and activation factors” (ProMetic BioSciences Inc., priority 2001, dated 2013)
Where “and” joins values, the source holds several entries; their conditions need not be identical. Equal entries are not always repeated. Entries after “also recorded” stand apart in the source; their conditions may differ.

What was measured:
bone marrow cells = experiment: In vivo chemoprotection: bone marrow cell count; conditions: for effect on bone marrow cell count compared to cyclophosphamide treated mice: protocol of example 16 (pre-treatment)
Protocol: (§1) To examine the immunoprotective effect of MCT or other compounds, mice were pre-treated orally at day-3, -2 and -1 or treated intravenously at day 0 with the test compound. Mice were sacrificed at day +5 by cardiac puncture and cervical dislocation. Then, cell suspensions were prepared from thymus, spleen and bone marrow as follow.
(§2) Tissues were crushed in PBS buffer and contaminating erythrocytes were lysed in ACK buffer (155 mM NH4Cl, 12 mM NaHCO3, 0.1 mM EDTA, pH 7.3) for 5 minutes. Cells were then collected by centrifugation and washed three times in PBS and resuspended in tissue culture medium. Cells were counted on a hemacytometer.
(§3) Chemoprotection studies were performed as described in example 16 except that mice were (post)-treated with MCT, sodium caprylate, sodium caprate or capric acid per o.s. on day 1, 2, 3 and 4.

spleen cells = experiment: In vivo chemoprotection: spleen cell count; conditions: for effect on spleen cell count compared to cyclophosphamide treated mice: protocol of example 16 (pre-treatment)
Protocol: as §1, §2, §3

DA-3 breast carcinoma = experiment: Antitumor activity in DA-3 breast carcinoma model; assay type: in vivo, BALB/c mice; parameters: Tumor volume: unit not given here; conditions: for effect on tumor volume compared to the control: FIG. 12, Table 20; for effect on tumor volume compared to the control / T/C (%): therapeutic CY 200 mg/kg, TX 30 mg/kg; for Treated/Control (%) / Tumor volume: Table 19, sub-therapeutic CY 100 mg/kg, TX 20 mg/kg i.v. day 9 and 16, MCT per os, day 23; for T/C (%): Table 20
Protocol: The syngeneic tumor DMBA3 (DA-3, breast carcinoma model) arose from a preneoplastic lesion treated with 7,12-dimethylbenzanthracene in female BALB/c mice. DA-3 cells were grown as monolayer cultures in plastic flasks in RPMI-1640 containing 0.1 mM nonessential amino acids, […], 2 mM L-glutamine and 100 μg/ml gentamycin sulfate. This was further supplemented with 50 μM 2-mercaptoethanol and 10% fetal bovine serum. The DA-3 tumors were serially passage in vivo by s.c. inoculation of 5×10^5 viable tumor cells to produce localized tumors in 6- to 8-week old BALB/c mice. The animals were then serially monitored by manual palpation for evidence of tumor. Serial tumor volume was obtained by bi-dimensional diameter measurements with calipers, using the formula […] (a×b^2) where “a” was the major tumor diameter and “b” the minor perpendicular diameter.
BABL/c mice were injected with tumor cells on day 0. […] Body weights and tumor volumes were monitored from day 4 until day 23. At day 23, all animals were sacrificed. The % T/C (treatment over control) was calculated as the ratio of tumor volumes at termination date in the treatment group divided by the respective volumes in the control group multiplied by 100. By the NCl criteria the product is considered effective if % T/C is ≦40%.

spleen cell subsets = experiment: Spleen immunophenotyping (flow cytometry of cell surface markers); assay type: in vivo, C57BL/6 mice
Protocol: (§4) Female, 6- to 8-week old, C57BL/6 mice were pre-treated on day -3, -2 and -1 per o.s. or intravenously at day 0 with different concentrations of MCT. Immunophenotyping was also performed on immunosuppressed animals. […] Mice were sacrificed on day 5 by cardiac puncture. Blood and spleens were collected and cell suspensions prepared and erythrocytes lysed in ACK buffer (155 mM NH4Cl, 12 mM NaHCO3, 0.1 mM EDTA, pH 7.3) for 5 minutes. The cells were washed three times in PBS, pH 7.4 and resuspended in tissue culture medium. The cells were then incubated for 45 minutes on ice with fluorescein isothiocyanate (FITC) or phycoerythrin (PE) conjugated cell surface marker according to the manufacturer's (Gibco/BRL, Cedarlane, Boehringer Mannheim) recommendation. The cells were then washed in PBS, fixed with 1% paraformaldehyde and analyzed with a Coulter XL flow cytometer. Analysis of the cell subsets was undertaken by determination of standard cell surface markers which were as follows: TCR (T-cell receptor), CD4 (T helper), CD8 (T cytotoxic/suppressor), CD11b (macrophage), NK (NK cells) and Ly5 (B-cells). Bone marrow cells were obtained as described in example 15. Cells were stained by a 45 minutes incubation of FITC or PE conjugated cell surface marker according to the manufacturer's recommendation. The cells were then washed in PBS, fixed with 1% paraformaldehyde and analyzed with a Coulter XL flow cytometer. Analysis of the cell subsets was undertaken by determination of standard cell surface markers which were as follows: CD34 (hematopoietic progenitor cells), CD41 (platelets, megakaryocytes), CD13 (myelomonocytic stem cells, myelocytes, promonocytes) and CD38 (lymphoid stem cells, pro-B, pre-B).

blood cell subsets = experiment: Blood immunophenotyping (flow cytometry of cell surface markers); assay type: in vivo, C57BL/6 mice; conditions: for Blood Immunophenotyping: effect compared to cyclophosphamide alone (words): CY (200 mg/kg) immunosuppressed mice
Protocol: as §4

human neutrophils (PMN) = experiment: Doxorubicin-induced neutrophil apoptosis, comparison to GM-CSF (% PMN viability); assay type: cell-based; conditions: for effect on doxorubicin-induced human neutrophil apoptosis: Table 2
Description: Table 2 represents the effect of GM-CSF, MCT and tricaprylin on doxorubicin-induced human neutrophil apoptosis.

thymus = experiment: In vivo: thymus weight, MCT versus GM-CSF; conditions: normal mice; FIG. 8
Protocol: as §1
In vivo comparison on the induction of immune cell proliferation/regeneration or protection was undertaken following the protocol described in example 16. Comparative studies of MCT and GM-CSF were performed on normal and immunosuppressed animals.

bone marrow cell subsets = experiment: Bone marrow immunophenotyping (CD34, CD13, CD41, CD38); assay type: in vivo, C57BL/6 mice; conditions: mouse, in vivo
Protocol: as §4
The effect of MCT, sodium caprylate, sodium caprate on bone marrow immunophenotyping was assessed by the protocol described in example 26.

[1] = Table 16, CY-treated mice, CY + test compound (CY line = CY alone), protocol of example 16
[2] = Table 14, CY (200 mg/kg) immunosuppressed mice, compound 6.25 μM
[3] = Table 8, CY-immunosuppressed mice, CY + test compound 6.25 μM (CY line = CY alone)
[4] = immunosuppressed animals, comparison MCT versus GM-CSF
[5] = Table 6, CY-treated mice, CY + test compound (CY line = CY alone), protocol of example 16
[6] = Table 5, CY-treated mice, CY + test compound (CY line = CY alone), protocol of example 16
[7] = Table 7, CY-treated mice, CY + test compound 6.25 μMole pre-treatment (CY line = CY alone)
[8] = Table 9, CY-immunosuppressed mice, CY + test compound 6.25 μMole (CY line = CY alone)
[9] = Table 10, CY-treated mice, post-treatment per o.s. on day 1, 2, 3 and 4 with test substance 12.5 μM (CY line = CY alone)

CC(=O)O[C@@]12CO[C@@H]1C[C@H](O)[C@@]1(C)C(=O)[C@H](O)C3=C(C)[C@@H](OC(=O)[C@H](O)[C@@H](NC(=O)OC(C)(C)C)c4ccccc4)C[C@@](O)([C@@H](OC(=O)c4ccccc4)[C@H]21)C3(C)C [TX, taxotere]
effect of cytotoxic drug on bone marrow cell count compared to the control (bone marrow cells; mouse, in vivo, iv): has no significant effect on bone marrow cell count
effect of cytotoxic drug on spleen cell count compared to the control (spleen cells; mouse, in vivo, iv): reduce significantly the spleen cell count compared to the control
effect on tumor volume compared to the control (DA-3 breast carcinoma): not significant compared to the control mice
Treated/Control (%) (DA-3 breast carcinoma): 64.5%
Tumor volume (DA-3 breast carcinoma): 37.9 ± 41.5
T/C (%) (DA-3 breast carcinoma): 64.7%

CCCCCCCCCC(=O)OCC(N)COC(=O)CCCCCCCCC [didecanoyl serinol, 1,3-O,O-Didecanoyl serinol]
Bone Marrow # Cells (×10^6) (bone marrow cells; [1]): 30 ± 3.8 ×10^6
melting point: 101 °C
Spleen # Cells (×10^6) (spleen cells; [1]): 36 ± 9.9 ×10^6

CCCCCCCCCCCC(=O)OCC(COC(=O)CCCCCCCCCCC)OC(=O)CCCCCCCCCCC [trilaurin]
Spleen Immunophenotyping: effect compared to cyclophosphamide alone (words) (spleen cell subsets; CY (200 mg/kg) immunosuppressed mice): enhance the relative percentage of CD11+; also recorded: induces a significant increase in the LY5-TCR- and NK+ cell subsets
Spleen Immunophenotyping: CD11+ cell subset (relative percentage) (spleen cell subsets; [2]): 43.94 ± 4.78
Spleen Immunophenotyping: LY5−TCR− cell subset (relative percentage) (spleen cell subsets; [2]): 77.86 ± 2.94
Spleen Immunophenotyping: NK+ cell subset (relative percentage) (spleen cell subsets; [2]): 17.46 ± 5.80
effect on bone marrow cell count compared to cyclophosphamide treated mice (bone marrow cells; CY-treated mice): weak (not significant) activity
Bone Marrow # Cells (×10^6) (bone marrow cells; [3]): 31 ± 6.8 ×10^6
Blood Immunophenotyping: effect compared to cyclophosphamide alone (words) (blood cell subsets): no significant effect compared to cyclophosphamide alone
Blood Immunophenotyping: effect compared to cyclophosphamide alone (words) (blood cell subsets; listed as Trilaurin): No significant effect
effect on spleen cell count compared to cyclophosphamide treated mice (spleen cells; CY-treated mice): weak (not significant) activity
Spleen # Cells (×10^6) (spleen cells; [3]): 28 ± 19.5 ×10^6

GM-CSF: granulocyte-macrophage colony stimulating factor, hematopoietic growth factor
% PMN Viability (human neutrophils (PMN); GM-CSF 10^-7 M + DOX (10^-5 M)): 16.75 ± 2.05%
% PMN Viability (human neutrophils (PMN); GM-CSF 10^-8 M + DOX (10^-5 M)): 6.99 ± 0.23%
effect on doxorubicin-induced human neutrophil apoptosis (human neutrophils (PMN)): able to rescue or protect human neutrophils against doxorubicin-induced apoptosis
activity on bone marrow cell count (bone marrow cells; [4]): has no significant activity on bone marrow and spleen cell counts
effect on thymus weight (thymus): significant effect
activity on spleen cell count (spleen cells; [4]): has no significant activity on bone marrow and spleen cell counts

CCCCCCCC(=O)OCC(COC(=O)CCCCCCC)OC(=O)CCCCCCC [tricaprylin]
effect on doxorubicin-induced human neutrophil apoptosis (human neutrophils (PMN)): rescues doxorubin-induced apoptosis and further enhances the viability of human neutrophils to a higher extent than that observed in the non-treated neutrophils
effect on bone marrow cell count compared to cyclophosphamide treated mice (bone marrow cells; CY-treated mice): efficacious in the proliferation or protection of bone marrow cell counts
Bone Marrow # Cells (×10^6) (bone marrow cells; [5]): 34 ± 7.8 ×10^6
effect on spleen cell count compared to cyclophosphamide treated mice (spleen cells; CY-treated mice): No significant effect
Spleen # Cells (×10^6) (spleen cells; [5]): 37 ± 12.6 ×10^6

O=P1(N(CCCl)CCCl)NCCCO1 (stereo not shown) [CY, cyclophosphamide, reference compound]
Spleen Immunophenotyping: CD11+ cell subset (relative percentage) (spleen cell subsets; mouse, in vivo): 16.31 ± 4.85
Spleen Immunophenotyping: NK+ cell subset (relative percentage) (spleen cell subsets; mouse, in vivo): 7.53 ± 2.52
effect of cytotoxic drug on bone marrow cell count compared to the control (bone marrow cells; FIG. 6, cytotoxic drug i.v. at day 0): depressed the bone marrow cell count compared to the control
Bone Marrow # Cells (×10^6) (bone marrow cells; [6]): 22 ± 5.7 ×10^6
Bone Marrow # Cells (×10^6) (bone marrow cells; [5]): 22 ± 5.8 ×10^6
Bone Marrow # Cells (×10^6) (bone marrow cells; [7]): 32 ± 6.3 ×10^6
Bone Marrow # Cells (×10^6) (bone marrow cells; [3]): 27 ± 2.8 ×10^6
Bone Marrow # Cells (×10^6) (bone marrow cells; [8]): 25 ± 4.9 ×10^6
Bone Marrow # Cells (×10^6) (bone marrow cells; [9]): 19 ± 4.99 ×10^6
Bone Marrow # Cells (×10^6) (bone marrow cells; [1]): 28 ± 3.4 ×10^6
Bone Marrow # Cells (×10^6) (bone marrow cells; Table 17, CY-treated mice, CY + test compound (CY line = CY alone), protocol of example 16): 26.2 ± 2.6 ×10^6
Bone Marrow # Cells (×10^6) (bone marrow cells; Table 18, CY-treated mice, CY + test compound (CY line = CY alone), protocol of example 16): 27.5 ± 8.0 ×10^6
% Cells CD13+ (bone marrow) (bone marrow cell subsets): 3.2 ± 0.5%
% Cells CD34+ (bone marrow) (bone marrow cell subsets): 10 ± 1.0%
% Cells CD38+ (bone marrow) (bone marrow cell subsets): 39.6 ± 13.6%
% Cells CD41+ (bone marrow) (bone marrow cell subsets): 4.2 ± 0.6%
Bone marrow immunophenotyping (bone marrow cell subsets): induces a significant increase in all studied subsets
Blood Immunophenotyping: CD11+ cell subset (relative percentage) (blood cell subsets; mouse, in vivo): 26.41 ± 4.54
Blood Immunophenotyping: LY5−TCR− cell subset (relative percentage) (blood cell subsets; mouse, in vivo): 36.82 ± 9.93 and 56.36 ± 7.26 and 40.91 ± 8.84
effect of cytotoxic drug on spleen cell count compared to the control (spleen cells; FIG. 7, cytotoxic drug i.v. at day 0): reduce significantly the spleen cell count compared to the control
Spleen # Cells (×10^6) (spleen cells; [6]): 23 ± 4.0 ×10^6
Spleen # Cells (×10^6) (spleen cells; [5]): 36 ± 13.6 ×10^6
Spleen # Cells (×10^6) (spleen cells; [7]): 24 ± 6 ×10^6
Spleen # Cells (×10^6) (spleen cells; [3]): 19 ± 6.5 ×10^6
Spleen # Cells (×10^6) (spleen cells; [8]): 33 ± 13.2 ×10^6
Spleen # Cells (×10^6) (spleen cells; [9]): 30 ± 9.5 ×10^6
Spleen # Cells (×10^6) (spleen cells; [1]): 29 ± 9.2 ×10^6
effect on tumor volume compared to the control (DA-3 breast carcinoma): significant reduction of the tumor volume
Treated/Control (%) (DA-3 breast carcinoma): 46.8%
Tumor volume (DA-3 breast carcinoma): 27.5 ± 15.9
T/C (%) (DA-3 breast carcinoma): 18.8%
